Assay [1] concerns the target WT KRAS (Homo sapiens, UniProt P01116). Briefly: KRAS WT Probe Displacement Assay (TR-FRET, GDP-loaded). The format is binding. An excerpt:
(§1) The synthetic routes of probe 1 and 2, which have been disclosed in PCT/CN2022/070676, are hereby incorporated herein.
In general terms: Time-resolved FRET reads energy transfer from a long-lived donor to a nearby acceptor.

Assay [2] concerns the target KRAS G12D (Homo sapiens, UniProt P01116, G12D). Briefly: KRAS G12D Probe Displacement Assay (TR-FRET, GDP-loaded). The class given is binding.
Text: as §1

[3] abbreviates: KRAS WT, read-out: KRAS^WT Probe Displacement Assay IC50.
The mark [4] stands for this setting: KRAS G12D, read-out: KRAS^G12D Probe Displacement Assay IC50.
[5] abbreviates: KRAS^WT Probe Displacement Assay IC50, KRAS WT.
[6] abbreviates: KRAS^G12D Probe Displacement Assay IC50, KRAS G12D.

Each structure is given as a SMILES string. Where a name gives a salt, the structure may show the parent alone. Read-outs that look alike come from different tables or passages of the source.

As usually defined, the IC50 is the midpoint of a concentration-inhibition curve.

Chain of WT KRAS (P01116 1-188 isoform P01116-2): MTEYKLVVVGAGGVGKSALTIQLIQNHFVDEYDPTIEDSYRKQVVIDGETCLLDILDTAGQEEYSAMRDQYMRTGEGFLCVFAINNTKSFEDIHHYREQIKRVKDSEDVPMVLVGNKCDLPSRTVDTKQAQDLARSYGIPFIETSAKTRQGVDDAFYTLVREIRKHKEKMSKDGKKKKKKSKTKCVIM
Chain of KRAS G12D (P01116 1-188 isoform P01116-2 G12D): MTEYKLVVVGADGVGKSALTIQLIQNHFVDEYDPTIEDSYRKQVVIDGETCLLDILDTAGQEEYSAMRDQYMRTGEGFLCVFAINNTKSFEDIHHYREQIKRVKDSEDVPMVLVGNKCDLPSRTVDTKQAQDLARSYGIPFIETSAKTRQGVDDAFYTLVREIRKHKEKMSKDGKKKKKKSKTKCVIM

As to `Cc1cc(N)cc(-c2nc3c4c(nc(OCC5(CN6CCC7(C6)CC7(F)F)CC5)nc4c2F)N2C[C@H]4CC[C@H](N4)[C@H]2CCO3)c1C(F)(F)F` (single isomer, unassigned) [Example 138], the IC50 was 0.3 to 3 nM in assay [1] (setting [3]) and less than 0.3 nM in assay [2] (setting [4]).
`Nc1cc(Cl)c(C(F)(F)F)c(-c2nc3c4c(nc(OCC5(CN6CCC(=C(F)F)CC6)CC5)nc4c2F)N2C[C@H]4CC[C@H](N4)[C@H]2CCO3)c1` [Example 148, 3-chloro-5-((6aR,7S,10R)-13-((1-((4-(difluoromethylene)piperidin-1-yl)methyl)cyclopropyl)methoxy)-1-fluoro-5,6,6a,7,8,9,10,11-octahydro-4-oxa-3,11a,12,14,15-pentaaza-7,10-methano-cyclohepta[4,5]cycloocta [1,2,3-de]naphthalen-2-yl)-4-(trifluoromethyl)aniline]: the IC50 in assay [1] (setting [3]) was 0.3 to 3 nM; in assay [2] (setting [4]), less than 0.3 nM.
As to `Cc1cc(N)cc(-c2nc3c4c(nc(OCC5(C)CN(C)CCC5C(F)F)nc4c2F)N2C[C@H]4CC[C@H](N4)[C@H]2CCO3)c1C(F)(F)F` (single isomer, unassigned) [Example 244], the IC50 in assay [1] (setting [3]) was in the range of 3 to 1000 nM; in assay [2] (setting [4]) it was 0.3 to 3 nM.
As to `Cc1cc(N)cc(-c2nc3c4c(nc(OCC5(CN6C7COCC6C7)CC5)nc4c2F)N2C[C@H]4CC[C@H](N4)[C@H]2CCO3)c1C(F)(F)F` [Example 104, 3-((6aR,7S,10R)-13-((1-((3-oxa-6-azabicyclo[3.1.1]heptan-6-yl)methyl)cyclopropyl)methoxy)-1-fluoro-5,6,6a,7,8,9,10,11-octahydro-4-oxa-3,11a,12,14,15-pentaaza-7,10-methanocyclohepta [4,5]cycloocta [1,2,3-de]naphthalen-2-yl)-5-methyl-4-(trifluoromethyl) aniline formate], the IC50 is 3 to 1000 nM in assay [1] (setting [5]) and less than 0.3 nM in assay [2] (setting [6]).
Regarding `Cc1cc(N)cc(-c2nc3c4c(nc(OCC5(C)CN(C)CCN5C)nc4c2F)N2C[C@H]4CC[C@H](N4)[C@H]2CCO3)c1C(F)(F)F` (single isomer, unassigned) [Example 4], the IC50 in assay [1] (setting [3]) is 3 to 1000 nM; in assay [2] (setting [4]) it was less than 0.3 nM.
For `C[C@H](Oc1nc2c3c(nc(-c4cc(N)cc(Cl)c4C(F)(F)F)c(F)c3n1)OCC[C@@H]1[C@@H]3CC[C@H](CN21)N3)[C@@H]1CCCN1C` [Example 140, 3-chloro-5-((6aR,7S,10R)-1-fluoro-13-((S)-1-((S)-1-methylpyrrolidin-2-yl)ethoxy)-5,6,6a,7,8,9,10,11-octahydro-4-oxa-3,11a,12,14,15-pentaaza-7,10-methano-cyclohepta[4,5]cycloocta [1,2,3-de]naphthalen-2-yl)-4-(trifluoromethyl)aniline], the results for the half-inhibitory concentration (IC50) in assay [1] (setting [3]) and in assay [2] (setting [4]) were 3 to 1000 nM and less than 0.3 nM, respectively.
For `CO[C@@H]1CN2C[C@H](F)C[C@]2(COc2nc3c4c(nc(-c5cc(N)cc(Cl)c5C(F)(F)F)c(F)c4n2)OCC[C@@H]2[C@@H]4CC[C@H](CN32)N4)C1` [Example 217, 3-chloro-5-((6aR,7S,10R)-1-fluoro-13-(((2R,6S,7aS)-2-fluoro-6-methoxytetahydro-1H-pyrrolizin-7a(5H)-yl)methoxy)-5,6,6a,7,8,9,10,11-octahydro-4-oxa-3,11a,12,14,15-pentaaza-7,10-methanocyclohepta[4,5]cycloocta[1,2,3-de]naphthalen-2-yl)-4-(trifluoromethyl)aniline], the IC50 in assay [1] (setting [3]) is 3 to 1000 nM; in assay [2] (setting [4]) it was less than 0.3 nM.
For `Nc1cc(Cl)c(C(F)(F)F)c(-c2nc3c4c(nc(OC[C@@]56C[C@@H](F)CN5CC5(CC5)C6)nc4c2F)N2C[C@H]4CC[C@H](N4)[C@H]2CCO3)c1` [Example 207, 3-chloro-5-((6aR,7S,10R)-1-fluoro-13-(((6′R,7a′R)-6′-fluorodihydro-1′H,3′H-spiro[cyclopropane-1,2′-pyrrolizin]-7a′(5′H)-yl)methoxy)-5,6,6a,7,8,9,10,11-octahydro-4-oxa-3,11a,12,14,15-pentaaza[7,10]methanocyclohepta[4,5]cycloocta[1,2,3-de]naphthalen-2-yl)-4-(trifluoromethyl)aniline], in that order: 0.3 to 3 nM and less than 0.3 nM.
Consider `Cc1cc(N)cc(-c2nc3c4c(nc(OCC5(C(C)N(C)C)CC5(F)F)nc4c2F)N2C[C@H]4CC[C@H](N4)[C@H]2CCO3)c1C(F)(F)F` (single isomer, unassigned) [Example 59], for which the IC50 in assay [1] (setting [3]) was 3 to 1000 nM; in assay [2] (setting [4]), less than 0.3 nM.
As to `CO[C@H]1CN2C[C@H](F)C[C@]2(COc2nc3c4c(nc(-c5cc(N)cc(C)c5C(F)(F)F)c(F)c4n2)OCC[C@@H]2[C@@H]4CC[C@H](CN32)N4)C1` [Example 214, 3-((6aR,7S,10R)-1-fluoro-13-(((2R,6R,7aS)-2-fluoro-6-methoxytetrahydro-1H-pyrrolizin-7a(5H)-yl)methoxy)-5,6,6a,7,8,9,10,11-octahydro-4-oxa-3,11a,12,14,15-pentaaza-7,10-methanocyclohepta[4,5]cycloocta[1,2,3-de]naphthalen-2-yl)-5-methyl-4-(trifluoromethyl)aniline], the IC50 is 3 to 1000 nM in assay [1] (setting [3]) and less than 0.3 nM in assay [2] (setting [4]).
For `Cc1cc(N)cc(-c2nc3c4c(nc(OCC5(CN6CCC7(C6)CC7(F)F)CC5)nc4c2F)N2C[C@H]4CC[C@H](N4)[C@H]2CCO3)c1C(F)(F)F` (mixture of isomers) [Example 90, 3-((6aR,7S,10R)-13-((1-((1,1-difluoro-5-azaspiro [2.4]heptan-5-yl)methyl)cyclopropyl)methoxy)-1-fluoro-5,6,6a,7,8,9,10,11-octahydro-4-oxa-3, 11a,12,14,15-pentaaza[7,10]methanocyclohepta[4,5]cycloocta[1,2,3-de]naphthalen-2-yl)-5-methyl-4-(trifluoromethyl)aniline], in that order: 0.3 to 3 nM and less than 0.3 nM.
As for `Cc1cc(N)cc(-c2nc3c4c(nc(OCC5(CN6CCC(OC(F)(F)F)CC6)CC5)nc4c2F)N2C[C@H]4CC[C@H](N4)[C@H]2CCO3)c1C(F)(F)F` [Example 177, 3-((6aR,7S,10R)-1-fluoro-13-((1-((4-(trifluoromethoxy)piperidin-1-yl)methyl)cyclopropyl)methoxy)-5,6,6a,7,8,9,10,11-octahydro-4-oxa-3,11a,12,14,15-pentaaza-7,10-methanocyclohepta[4,5]cycloocta[1,2,3-de]naphthalen-2-yl)-5-methyl-4-(trifluoromethyl)aniline], the IC50 in assay [1] (setting [3]) was 0.3 to 3 nM; in assay [2] (setting [4]), less than 0.3 nM.
In the case of `COC1CN(CC2(COc3nc4c5c(nc(-c6cc(N)cc(C)c6C(F)(F)F)c(F)c5n3)OCC[C@@H]3[C@@H]5CC[C@H](CN43)N5)CC2(F)F)C1` (single isomer, unassigned) [Example 20], the IC50 in assay [1] (setting [5]) is 3 to 1000 nM; in assay [2] (setting [6]) it was less than 0.3 nM.
As to `Cc1cc(N)cc(-c2nc3c4c(nc(OCC5(C)CN(C)CC/C5=C\F)nc4c2F)N2C[C@H]4CC[C@H](N4)[C@H]2CCO3)c1C(F)(F)F` (single isomer, unassigned) [Example 236], the IC50 is 3 to 1000 nM in assay [1] (setting [3]) and less than 0.3 nM in assay [2] (setting [4]).
For the molecule `Cc1cc(N)cc(-c2nc3c4c(nc(OCC5(CN6C[C@H]7C[C@H]7[C@H]6C)CC5)nc4c2F)N2C[C@H]4CC[C@H](N4)[C@H]2CCO3)c1C(F)(F)F` [Example 172, 3-((6aR,7S,10R)-1-fluoro-13-((1-(((1R,2R,5S)-2-methyl-3-azabicyclo[3.1.0]hexan-3-yl)methyl)cyclopropyl)methoxy)-5,6,6a,7,8,9,10,11-octahydro-4-oxa-3,11a,12,14,15-pentaaza-7,10-methanocyclohepta[4,5]cycloocta[1,2,3-de]naphthalen-2-yl)-5-methyl-4-(trifluoromethyl)aniline], the IC50 in assay [1] (setting [3]) was 3 to 1000 nM; in assay [2] (setting [4]), less than 0.3 nM.
For the molecule `Cc1cc(N)cc(-c2nc3c4c(nc(OCC5(CN6CCC(=CF)CC6)CC5)nc4c2F)N2C[C@H]4CC[C@H](N4)[C@H]2CCO3)c1C(F)(F)F` [Example 154, 3-((6aR,7S,10R)-1-fluoro-13-((1-((4-(fluoromethylene)piperidin-1-yl)methyl)cyclopropyl)methoxy)-5,6,6a,7,8,9,10,11-octahydro-4-oxa-3,11a,12,14,15-pentaaza-7,10-methanocyclohepta[4,5]cycloocta [1,2,3-de]naphthalen-2-yl)-5-methyl-4-(trifluoromethyl)aniline], the IC50 was 0.3 to 3 nM in assay [1] (setting [3]) and less than 0.3 nM in assay [2] (setting [4]).
For `Cc1cc(N)cc(-c2nc3c4c(nc(OCC5(CN6CC(C(F)(F)F)C6)CC5)nc4c2F)N2C[C@H]4CC[C@H](N4)[C@H]2CCO3)c1C(F)(F)F` [Example 79, 3-((6aR,7S,10R)-1-fluoro-13-((1-((3-(trifluoromethyl)azetidin-1-yl)methyl)cyclopropyl)methoxy)-5,6,6a,7,8,9,10,11-octahydro-4-oxa-3,11a,12,14,15-pentaaza-7,10-methanocyclohepta [4,5]cycloocta [1,2,3-de]naphthalen-2-yl)-5-methyl-4-(trifluoromethyl)aniline], in that order: 3 to 1000 nM and less than 0.3 nM.
For the molecule `Cc1cc(N)cc(-c2nc3c4c(nc(OCC5(CN(C)C)CC5F)nc4c2F)N2C[C@H]4CC[C@H](N4)[C@H]2CCO3)c1C(F)(F)F` (single isomer, unassigned) [Example 136], the IC50 in assay [1] (setting [5]) was 3 to 1000 nM; in assay [2] (setting [6]), less than 0.3 nM.
`[2H]C([2H])([2H])N1C[C@H](OC)C[C@H]1[C@H](C)Oc1nc2c3c(nc(-c4cc(N)cc(C)c4C(F)(F)F)c(F)c3n1)OCC[C@@H]1[C@@H]3CC[C@H](CN21)N3` [Example 219, 3-((6aR,7S,10R)-1-fluoro-13-((S)-1-((2S,4R)-4-methoxy-1-(methyl-d3)pyrrolidin-2-yl)ethoxy)-5,6,6a,7,8,9,10,11-octahydro-4-oxa-3,11a,12,14,15-pentaaza-7,10-methanocyclohepta[4,5]cycloocta[1,2,3-de]naphthalen-2-yl)-5-methyl-4-(trifluoromethyl)aniline]: the IC50 was 3 to 1000 nM in assay [1] (setting [3]) and less than 0.3 nM in assay [2] (setting [4]).

Values taken from US20260347373A1, “HETEROCYCLIC COMPOUNDS, COMPOSITIONS THEREOF, AND METHODS OF TREATMENT THEREWITH” (BeOne Medicines I GmbH, priority 2023, published 2026).
